# Measurements: ChEMBL document CHEMBL1201862, “PubChem BioAssay data set” (2004)
# Activity calls are given as the source filed them.
# Assays:
# [1] = molecular target: Ephrin type-A receptor 4 (Mus musculus, UniProt Q03137); assay: EphA4 ligand-binding antagonists – biochemical, colorimetric, mouse EphA4, primary screen (AID 689); assay type: functional
# [2] = system: HEK293; assay: Fluorescence-based counterscreen for potentiators or agonists of NPY-Y2: cell-based high-throughput dose response assay to identify inhibitors of cyclic nucleotide gated ion channel (CNGC) activity. In this assay, the parental HEK293 cell line transfected with a cyclic-nucleotide gated ion channel (CNGC)-based cAMP sensor is used to measure inhibition of isoproterenol-induced CNGC activity by test compound.; assay type: functional; conditions: Homo sapiens
# [3] = molecular target: T1, Neuropeptide Y receptor type 2 (Homo sapiens, UniProt P49146); assay: Fluorescence-based cell-based high-throughput dose response assay for agonists of NPY-Y2. [Related pubchem assays: 1703 (Screening assay (CNGC inhibitors).), 1359 (Screening assay (NPY-Y2 potentiators or agonists).), 1304 (Screening assay (NPY-Y1 potentiators or agonists).), 1710 (Screening assay (NPY-Y2 agonists).), 1791 (Summary AID.)]; assay type: functional
# T1 sequence (P49146 whole entry): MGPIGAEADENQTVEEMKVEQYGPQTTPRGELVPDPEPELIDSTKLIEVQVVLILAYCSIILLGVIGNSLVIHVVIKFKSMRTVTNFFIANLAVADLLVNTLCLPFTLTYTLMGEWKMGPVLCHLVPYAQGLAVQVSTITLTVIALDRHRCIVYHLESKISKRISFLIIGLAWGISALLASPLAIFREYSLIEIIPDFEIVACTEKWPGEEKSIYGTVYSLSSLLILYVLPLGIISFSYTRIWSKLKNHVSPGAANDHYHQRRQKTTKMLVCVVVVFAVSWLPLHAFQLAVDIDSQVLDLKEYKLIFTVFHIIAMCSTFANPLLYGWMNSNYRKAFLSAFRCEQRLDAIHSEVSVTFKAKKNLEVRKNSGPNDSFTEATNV
# [4] = molecular target: T2, Neuropeptide Y receptor type 1 (Homo sapiens, UniProt P25929); assay: Fluorescence-based counterscreen for agonists of NPY-Y2: cell-based high-throughput dose response assay for agonists of NPY-Y1.; assay type: functional
# T2 sequence (P25929 whole entry): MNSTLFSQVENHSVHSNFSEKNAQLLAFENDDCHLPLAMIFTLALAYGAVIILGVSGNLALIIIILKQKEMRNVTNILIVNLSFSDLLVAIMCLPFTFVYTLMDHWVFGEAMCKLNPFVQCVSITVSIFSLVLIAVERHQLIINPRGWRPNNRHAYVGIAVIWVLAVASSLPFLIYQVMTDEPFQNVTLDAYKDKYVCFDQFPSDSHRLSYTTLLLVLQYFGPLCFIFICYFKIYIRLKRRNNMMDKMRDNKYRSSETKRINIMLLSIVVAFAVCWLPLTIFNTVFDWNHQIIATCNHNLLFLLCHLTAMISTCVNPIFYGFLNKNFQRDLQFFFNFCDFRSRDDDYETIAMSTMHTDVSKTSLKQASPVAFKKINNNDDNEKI
# [5] = Counterscreen for activators of the function of SWI/SNF related, matrix associated, actin dependent regulator of chromatin, subfamily a, member 2 (SMARCA2, BRM): Luminescence-based cell-based high throughput dose response assay to identify non-selective compounds using the VP16 reporter assay.; assay type: functional
# [6] = molecular target: SWI/SNF-related matrix-associated actin-dependent regulator of chromatin subfamily A member 2 (Homo sapiens, UniProt P51531); assay: Luminescence-based cell-based high throughput dose response assay to identify activators of the function of SWI/SNF related, matrix associated, actin dependent regulator of chromatin, subfamily a, member 2 (SMARCA2, BRM).; assay type: functional
# [7] = molecular target: T3, Acyl-homoserine lactone acylase PvdQ (Pseudomonas aeruginosa (strain LESB58), UniProt Q9I194); assay: PvdQ acylase enzyme activity blockers – biochemical, fluorescence, plate reader and imaging, cherry-picks, dose response (AID 493231)
# T3 sequence (Q9I194 whole entry): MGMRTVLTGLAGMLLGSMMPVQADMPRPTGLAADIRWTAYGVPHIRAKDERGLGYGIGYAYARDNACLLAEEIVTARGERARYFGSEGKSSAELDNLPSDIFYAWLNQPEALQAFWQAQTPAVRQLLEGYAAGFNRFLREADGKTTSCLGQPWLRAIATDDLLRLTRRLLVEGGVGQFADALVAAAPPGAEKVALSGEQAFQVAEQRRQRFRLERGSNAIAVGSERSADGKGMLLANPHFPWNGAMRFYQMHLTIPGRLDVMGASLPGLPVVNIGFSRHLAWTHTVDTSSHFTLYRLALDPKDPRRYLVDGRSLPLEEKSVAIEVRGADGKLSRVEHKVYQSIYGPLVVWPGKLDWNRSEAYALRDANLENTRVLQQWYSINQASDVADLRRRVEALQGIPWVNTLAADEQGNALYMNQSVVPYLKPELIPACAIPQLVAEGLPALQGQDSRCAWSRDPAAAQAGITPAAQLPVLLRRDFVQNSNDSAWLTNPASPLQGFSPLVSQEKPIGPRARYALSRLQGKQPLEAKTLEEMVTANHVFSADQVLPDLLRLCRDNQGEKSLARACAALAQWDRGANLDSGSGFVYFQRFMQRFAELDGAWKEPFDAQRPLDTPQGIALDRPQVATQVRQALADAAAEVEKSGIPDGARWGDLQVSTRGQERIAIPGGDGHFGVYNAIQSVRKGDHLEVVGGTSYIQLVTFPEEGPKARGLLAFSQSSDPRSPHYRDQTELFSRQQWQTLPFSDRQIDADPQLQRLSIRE
# [8] = system: HEK293; assay: EBV LMP1 TES2 canonical NF-kB signalling blockers – cell-based, HEK293, luciferase, cherry-pick, dose response (AID 588343); assay type: functional; conditions: Homo sapiens
# [9] = molecular target: Luciferin 4-monooxygenase (Photinus pyralis, UniProt P08659); assay: Counter Screen for Luciferase-based Assay Positives. [Related pubchem assays: 620, 618, 411 ]
# [10] = system: HT-1080; assay: HT1080 cell viability loss – fluorescence readout (AID 620); assay type: functional, cell-based; conditions: Homo sapiens
# [11] = molecular target: E3 ubiquitin-protein ligase Mdm2 (Homo sapiens, UniProt Q00987); assay: MDM2-luc reporter signal enhancers, multi-concentration potency testing, MDM2 ubiquitin-protein ligase inhibitor program, whole-cell format, luminescence detection, 384-well microplate (AID 1394); assay type: functional;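 note: MDM2 E3 inhibitors raise luminescence so EC50 is for signal enhancement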
# [12] = system: Streptococcus sp. 'group A'; assay: Streptococcus pyogenes SK(-)GAS viability under kanamycin – luminescence, BacTiterGlo, confirmation, counter-screen for streptokinase expression inhibitor project, dose response (AID 1900); assay type: functional, organism-based
# [13] = system: Streptococcus; assay: GAS UMAA2166 growth inhibition – luminescence, BacTiterGlo, counter-screen for streptokinase expression inhibitor project, dose response (AID 1915); assay type: functional, organism-based;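 note: potency for reduction of bacterial viability or growth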
# [14] = molecular target: NADPH oxidase 1 (Homo sapiens, UniProt Q9Y5S8); assay type: functional, cell-based;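 note: Cell-based assay with luminescence read-out, IC50 derived from inhibitor dose-response curves; intracellular ROS from endogenous NOX1 in intact HT29 colon cancer cells; potency of inhibitors that lower the ROS luminescence signal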
# [15] = M. tuberculosis H37Rv growth inhibitors, H37Rv strain (AID 1626); assay type: functional
# [16] = molecular target: T4, Protein skinhead-1 (Caenorhabditis elegans, UniProt P34707); assay type: functional
# T4 sequence (P34707 whole entry): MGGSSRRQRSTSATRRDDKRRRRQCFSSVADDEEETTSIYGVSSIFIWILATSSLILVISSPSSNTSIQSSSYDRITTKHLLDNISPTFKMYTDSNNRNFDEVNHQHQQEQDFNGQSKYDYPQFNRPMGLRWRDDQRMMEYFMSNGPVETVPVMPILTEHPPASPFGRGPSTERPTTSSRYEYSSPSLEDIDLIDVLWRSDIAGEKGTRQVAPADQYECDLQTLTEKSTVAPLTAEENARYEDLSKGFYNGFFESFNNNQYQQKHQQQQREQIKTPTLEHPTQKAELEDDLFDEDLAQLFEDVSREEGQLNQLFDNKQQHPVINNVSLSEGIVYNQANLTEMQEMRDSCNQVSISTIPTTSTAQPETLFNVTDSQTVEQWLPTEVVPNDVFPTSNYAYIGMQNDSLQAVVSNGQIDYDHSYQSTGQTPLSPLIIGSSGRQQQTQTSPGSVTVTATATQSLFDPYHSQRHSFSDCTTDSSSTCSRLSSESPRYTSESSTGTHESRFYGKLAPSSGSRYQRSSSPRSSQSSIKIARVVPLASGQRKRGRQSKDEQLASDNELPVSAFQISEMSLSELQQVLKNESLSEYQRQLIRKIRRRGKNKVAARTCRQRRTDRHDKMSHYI
# [17] = molecular target: Photoreceptor-specific nuclear receptor (Homo sapiens, UniProt Q9Y5X4); assay: ligands suppressing NR2E3 nuclear receptor activity – biochemical, TR-FRET, dose response (AID 463256); assay type: functional
# [18] = molecular target: Peroxisome proliferator-activated receptor gamma/Nuclear receptor corepressor 2 (Homo sapiens, UniProt P37231+Q9Y618); assay: Counterscreen for NR2E3 inverse agonists: TR-FRET-based biochemical high throughput dose response assay to identify inverse agonists of the interaction between peroxisome proliferator-activated receptor gamma (PPARg) and nuclear receptor co-repressor 2 (NCOR2).; assay type: functional
# [19] = molecular target: Mitogen-activated protein kinase 10 (Homo sapiens, UniProt P53779); assay: Dose response biochemical screening assay for inhibitors of c-Jun N-Terminal Kinase 3 (JNK3). [Related pubchem assays: 746 ]
# [20] = mitochondrial function rescue without frataxin homolog – Friedreich's ataxia, plus single-dose screen, dose response (AID 1465); assay type: functional;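 note: yeast depleted of Yfh1p frataxin homolog grown on glycerol needing respiration; WST-1 tetrazolium dye reduction as measure of cellular dehydrogenase metabolic activity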
# [21] = molecular target: Heat shock protein HSP 90-alpha (Homo sapiens, UniProt P07900); assay: Luminescence-based dose response biochemical high throughput screening assay for inhibitors of the Heat Shock Protein 90 (HSP90). [Related pubchem assays: 1831 (Summary AID.), 1846 (Confirmation screen.), 1789 (Primary screen.)]
# [22] = molecular target: DNA dC->dU-editing enzyme APOBEC-3G (Homo sapiens, UniProt Q9HC16); assay: Dose Response confirmation of small molecule APOBEC3G DNA Deaminase Inhibitors via a fluorescence-based single-stranded DNA deaminase assay. [Related pubchem assays (depositor defined):AID493012, AID493028]; assay type: functional
# [23] = molecular target: Mannose-6-phosphate isomerase (Homo sapiens, UniProt P34949); assay: MPI inhibition at elevated mannose 6-phosphate – biochemical, fluorescence intensity, high mannose 6-phosphate, primary screen (AID 1220)
# [24] = molecular target: Eukaryotic translation initiation factor 4E (Mus musculus, UniProt P63073); assay: blockers of eIF4G binding by eIF4E – biochemical, TR-FRET, dose response (AID 855); assay type: functional;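 note: potency for disrupting eIF4E binding to eIF4GI seen as loss of FRET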
# [25] = molecular target: Large T antigen (Simian virus 40, UniProt P03070); assay type: functional, Betapolyomavirus macacae;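 note: Confirmatory-stage PubChem screen for compounds that inhibit SV40 T antigen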
# Large T antigen, sequence (P03070 whole entry): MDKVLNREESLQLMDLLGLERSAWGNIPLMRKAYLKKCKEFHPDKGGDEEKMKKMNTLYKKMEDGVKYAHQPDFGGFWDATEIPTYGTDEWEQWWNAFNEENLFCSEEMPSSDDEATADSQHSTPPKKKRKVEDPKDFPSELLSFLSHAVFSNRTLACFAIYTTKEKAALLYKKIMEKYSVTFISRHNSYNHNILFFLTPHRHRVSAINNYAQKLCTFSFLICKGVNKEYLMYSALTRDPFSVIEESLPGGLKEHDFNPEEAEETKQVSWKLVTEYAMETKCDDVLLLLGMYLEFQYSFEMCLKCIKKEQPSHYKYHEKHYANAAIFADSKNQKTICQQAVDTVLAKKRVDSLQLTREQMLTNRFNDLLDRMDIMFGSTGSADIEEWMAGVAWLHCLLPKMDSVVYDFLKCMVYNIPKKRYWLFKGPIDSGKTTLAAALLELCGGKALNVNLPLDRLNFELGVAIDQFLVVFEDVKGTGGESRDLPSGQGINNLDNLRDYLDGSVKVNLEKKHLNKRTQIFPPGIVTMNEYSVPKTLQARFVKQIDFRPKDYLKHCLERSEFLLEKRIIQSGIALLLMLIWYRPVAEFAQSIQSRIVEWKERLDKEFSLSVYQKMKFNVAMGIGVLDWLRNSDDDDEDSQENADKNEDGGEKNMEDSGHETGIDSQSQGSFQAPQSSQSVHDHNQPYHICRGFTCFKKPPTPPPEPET
# Luciferin 4-monooxygenase, sequence (P08659 whole entry): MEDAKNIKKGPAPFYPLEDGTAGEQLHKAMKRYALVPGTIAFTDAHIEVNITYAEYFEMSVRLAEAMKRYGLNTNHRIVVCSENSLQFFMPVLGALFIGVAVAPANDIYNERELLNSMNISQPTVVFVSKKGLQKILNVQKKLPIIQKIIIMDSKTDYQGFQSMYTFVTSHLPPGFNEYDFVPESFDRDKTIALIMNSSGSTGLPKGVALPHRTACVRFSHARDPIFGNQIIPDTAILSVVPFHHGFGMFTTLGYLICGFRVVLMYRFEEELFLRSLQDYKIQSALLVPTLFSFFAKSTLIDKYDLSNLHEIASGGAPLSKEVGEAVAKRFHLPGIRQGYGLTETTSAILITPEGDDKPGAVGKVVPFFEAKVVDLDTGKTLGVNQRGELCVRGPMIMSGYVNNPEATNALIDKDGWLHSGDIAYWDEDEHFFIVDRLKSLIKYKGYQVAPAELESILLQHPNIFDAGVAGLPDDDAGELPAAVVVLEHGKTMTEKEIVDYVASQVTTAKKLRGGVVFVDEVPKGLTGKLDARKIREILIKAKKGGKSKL
# NADPH oxidase 1, sequence (Q9Y5S8 whole entry): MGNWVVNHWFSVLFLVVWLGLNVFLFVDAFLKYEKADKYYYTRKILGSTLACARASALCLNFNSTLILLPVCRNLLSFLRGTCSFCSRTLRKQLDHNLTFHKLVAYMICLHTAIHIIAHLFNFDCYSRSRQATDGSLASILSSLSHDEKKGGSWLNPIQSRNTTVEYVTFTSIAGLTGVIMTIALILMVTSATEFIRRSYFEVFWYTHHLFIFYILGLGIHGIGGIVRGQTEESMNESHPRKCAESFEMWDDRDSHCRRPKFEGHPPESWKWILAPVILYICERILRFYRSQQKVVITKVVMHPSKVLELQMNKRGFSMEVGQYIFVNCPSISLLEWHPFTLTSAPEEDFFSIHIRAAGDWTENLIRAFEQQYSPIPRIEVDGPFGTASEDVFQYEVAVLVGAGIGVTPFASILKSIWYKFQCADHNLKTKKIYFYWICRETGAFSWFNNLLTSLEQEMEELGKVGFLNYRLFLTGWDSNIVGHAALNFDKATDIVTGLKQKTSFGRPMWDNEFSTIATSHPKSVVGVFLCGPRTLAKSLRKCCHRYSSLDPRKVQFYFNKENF
# E3 ubiquitin-protein ligase Mdm2, sequence (Q00987 whole entry): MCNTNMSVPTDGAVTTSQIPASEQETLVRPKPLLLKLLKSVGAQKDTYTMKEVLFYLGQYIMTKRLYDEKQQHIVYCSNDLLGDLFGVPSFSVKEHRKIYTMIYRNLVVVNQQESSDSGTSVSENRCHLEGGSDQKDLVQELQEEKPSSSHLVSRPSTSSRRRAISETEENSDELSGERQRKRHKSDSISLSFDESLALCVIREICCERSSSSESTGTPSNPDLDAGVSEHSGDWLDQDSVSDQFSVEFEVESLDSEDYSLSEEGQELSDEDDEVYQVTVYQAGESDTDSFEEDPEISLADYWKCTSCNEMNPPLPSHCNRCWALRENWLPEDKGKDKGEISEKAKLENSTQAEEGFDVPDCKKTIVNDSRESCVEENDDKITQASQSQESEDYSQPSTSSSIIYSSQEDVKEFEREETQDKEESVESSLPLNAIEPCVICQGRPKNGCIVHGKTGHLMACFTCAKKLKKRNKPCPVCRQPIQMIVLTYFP
# Ephrin type-A receptor 4, sequence (Q03137 whole entry): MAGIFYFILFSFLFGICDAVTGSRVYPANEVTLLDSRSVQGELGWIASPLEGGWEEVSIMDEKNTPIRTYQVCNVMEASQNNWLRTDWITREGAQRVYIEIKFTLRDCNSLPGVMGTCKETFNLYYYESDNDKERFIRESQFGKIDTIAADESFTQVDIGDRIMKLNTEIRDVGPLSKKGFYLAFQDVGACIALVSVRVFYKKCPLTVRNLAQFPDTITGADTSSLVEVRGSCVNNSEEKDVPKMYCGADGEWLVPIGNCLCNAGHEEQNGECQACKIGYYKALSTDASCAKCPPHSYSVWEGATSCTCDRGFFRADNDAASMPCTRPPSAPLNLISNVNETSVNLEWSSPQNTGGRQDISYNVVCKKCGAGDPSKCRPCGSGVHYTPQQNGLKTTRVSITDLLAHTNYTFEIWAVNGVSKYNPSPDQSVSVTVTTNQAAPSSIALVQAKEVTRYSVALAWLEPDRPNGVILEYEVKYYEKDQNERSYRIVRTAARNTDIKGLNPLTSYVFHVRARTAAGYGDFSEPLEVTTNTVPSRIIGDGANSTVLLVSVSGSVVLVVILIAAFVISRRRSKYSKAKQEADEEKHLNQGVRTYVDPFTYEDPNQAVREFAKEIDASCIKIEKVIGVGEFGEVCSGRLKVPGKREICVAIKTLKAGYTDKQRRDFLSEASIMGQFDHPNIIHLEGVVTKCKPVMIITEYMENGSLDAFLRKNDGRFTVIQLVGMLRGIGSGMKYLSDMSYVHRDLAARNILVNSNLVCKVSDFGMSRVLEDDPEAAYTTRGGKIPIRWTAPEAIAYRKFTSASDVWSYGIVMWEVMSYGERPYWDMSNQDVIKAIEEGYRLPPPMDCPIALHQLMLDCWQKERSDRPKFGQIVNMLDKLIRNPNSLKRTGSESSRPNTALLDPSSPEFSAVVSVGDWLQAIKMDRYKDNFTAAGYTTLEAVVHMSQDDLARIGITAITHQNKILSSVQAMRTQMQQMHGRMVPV
# Photoreceptor-specific nuclear receptor, sequence (Q9Y5X4 whole entry): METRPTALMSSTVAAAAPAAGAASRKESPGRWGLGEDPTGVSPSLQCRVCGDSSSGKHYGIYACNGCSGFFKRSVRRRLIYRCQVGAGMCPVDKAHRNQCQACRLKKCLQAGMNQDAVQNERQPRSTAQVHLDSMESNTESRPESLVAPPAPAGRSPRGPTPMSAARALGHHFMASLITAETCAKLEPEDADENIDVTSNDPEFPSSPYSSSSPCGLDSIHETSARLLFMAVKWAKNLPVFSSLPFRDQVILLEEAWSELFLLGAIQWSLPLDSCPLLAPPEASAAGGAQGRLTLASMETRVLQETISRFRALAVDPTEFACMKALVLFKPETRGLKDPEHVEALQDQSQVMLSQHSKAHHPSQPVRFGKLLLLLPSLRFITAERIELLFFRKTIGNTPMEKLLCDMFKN
# DNA dC->dU-editing enzyme APOBEC-3G, sequence (Q9HC16 whole entry): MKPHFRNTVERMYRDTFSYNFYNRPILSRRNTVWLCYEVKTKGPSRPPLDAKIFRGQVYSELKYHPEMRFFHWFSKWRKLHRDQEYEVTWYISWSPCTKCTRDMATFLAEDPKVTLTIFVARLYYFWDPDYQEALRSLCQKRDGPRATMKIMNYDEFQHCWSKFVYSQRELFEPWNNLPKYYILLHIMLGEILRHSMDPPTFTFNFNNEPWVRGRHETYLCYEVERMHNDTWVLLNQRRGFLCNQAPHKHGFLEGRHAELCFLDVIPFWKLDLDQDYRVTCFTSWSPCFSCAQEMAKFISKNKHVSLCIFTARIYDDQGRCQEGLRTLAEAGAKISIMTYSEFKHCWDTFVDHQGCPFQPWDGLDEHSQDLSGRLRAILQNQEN
# Mitogen-activated protein kinase 10, sequence (P53779 whole entry): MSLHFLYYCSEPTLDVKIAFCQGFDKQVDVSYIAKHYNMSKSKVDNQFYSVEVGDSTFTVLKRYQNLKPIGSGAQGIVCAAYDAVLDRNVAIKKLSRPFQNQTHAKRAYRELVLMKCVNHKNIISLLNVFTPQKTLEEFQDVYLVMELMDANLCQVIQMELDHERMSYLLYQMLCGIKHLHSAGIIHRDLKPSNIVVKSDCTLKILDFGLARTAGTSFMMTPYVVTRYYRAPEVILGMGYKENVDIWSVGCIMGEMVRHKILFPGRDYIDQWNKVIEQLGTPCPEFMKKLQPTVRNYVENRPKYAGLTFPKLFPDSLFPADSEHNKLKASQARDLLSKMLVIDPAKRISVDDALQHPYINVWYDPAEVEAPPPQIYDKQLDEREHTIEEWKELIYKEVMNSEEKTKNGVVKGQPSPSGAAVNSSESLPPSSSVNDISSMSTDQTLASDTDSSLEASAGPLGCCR
# Eukaryotic translation initiation factor 4E, sequence (P63073 whole entry): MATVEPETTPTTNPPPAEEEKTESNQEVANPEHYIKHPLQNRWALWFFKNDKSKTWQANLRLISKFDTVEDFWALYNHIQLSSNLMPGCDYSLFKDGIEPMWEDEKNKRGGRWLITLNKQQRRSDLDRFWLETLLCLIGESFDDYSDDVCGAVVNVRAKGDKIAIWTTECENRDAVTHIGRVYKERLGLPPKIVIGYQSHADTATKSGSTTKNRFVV
smiles,measurement,setting,value
CCc1cccc2c(C(=O)CSc3nnc(-c4ccoc4C)n3C)c[nH]c12,IC50,[1],12.7 µM (active)
Cc1cc2c(cc1C)N(C(=O)CSC1=NCCS1)C(C)(C)c1ssc(=S)c1-2,EC50,[2],> 35.4 µM (not active)
same,EC50,[3],32 µM (not active)
same,EC50,[4],22.2 µM (not active)
CCOc1ccc(NC(=O)c2cnsn2)cc1,EC50,[5],> 91.2 µM (inactive)
same,EC50,[6],> 91.2 µM (inactive)
same,AC50,[7],81 µM (active)
same,AC50,[8],5.39 µM (active)
same,EC50,[9],48.3 µM (active)
same,EC50,[10],> 50 µM (not active)
CCOC(=O)Cn1nnnc1C,EC50,[11],827 µM (not active)
O=[N+]([O-])c1cc(C(F)(F)F)cc([N+](=O)[O-])c1NCCN=C(S)Nc1ccc(Cl)c(Cl)c1,EC50,[2],7.47 µM (active)
same,EC50,[12],4.03 µM (active)
same,EC50,[13],6.5 µM (active)
O=C(Oc1ccc([N+](=O)[O-])cc1)c1cc2ccccc2s1,IC50,[14],> 17 µM (not active)
Cc1cc(C)cc(OCc2nnc(SCC(=O)OC(C)C)o2)c1,IC50,[15],> 100 µM (active)
COc1ccccc1NC(=O)CN1CCN(C2c3ccccc3-c3ccccc32)CC1,IC50,[16],> 100 µM (inactive)
same,IC50,[15],> 100 µM (active)
O=C(NNC(=O)Nc1ccc(Cl)cc1)Nc1ccc(Cl)cc1,IC50,[14],> 17 µM (not active)
CC(=O)c1sc(NC(=O)CCCOc2ccc(Cl)cc2)nc1C,IC50,[17],4.49 µM (active)
same,IC50,[18],3.5 µM (active)
O=C(CCCCCn1c(=S)[nH]c2ccccc2c1=O)N1CCC2(CC1)OCCO2,IC50,[19],29.7 µM (not active)
O=c1c2ccccc2nnn1CSc1nnc2sc3ccccc3n12,EC50,[9],0.52 µM (active)
same,EC50,[10],> 50 µM (not active)
COc1cc([N+](=O)[O-])cc(/C=N\NC(=O)C2COc3ccccc3O2)c1O (stereo not given),EC50,[20],> 100 µM (active)
same,EC50,[12],2.97 µM (active)
same,EC50,[13],3.33 µM (active)
Cc1ccc(S(=O)(=O)N2CCN(C(=O)CC(C)C)CC2)cc1,EC50,[11],7.17 µM (not active)
Cc1cc2ccccc2n1CCNC(=O)c1ccccc1,IC50,[16],> 100 µM (inactive)
same,IC50,[21],2.52 µM (active)
same,IC50,[1],32.7 µM (active)
CC(C)(O)C1Cc2cc(/C=C/C(=O)O)c(O)cc2O1 (stereo not given),IC50,[22],38.2 µM (active)
same,IC50,[23],8.63 µM (active)
same,IC50,[24],30.4 µM (active)
same,IC50,[25],38.3 µM (active)
